Literature values in paper PMC8453963 (Chemmedchem, 2021).
Marks after values point to notes of the source that are not given here.

Conditions: ref [53]

- log D oct/PBS: −2.91^[a]
Structure (SMILES): O=C([O-])CN(CCN(CC(=O)[O-])Cc1cc(CCC(=O)NCCCCCC(=O)NCCCC[C@H](NC(=O)N[C@@H](CCC(=O)O)C(=O)O)C(=O)O)ccc1[O-])Cc1cc(CCC(=O)O)ccc1[O-].[68Ga+3].[OH3+] [[^68Ga]Ga‐PSMA‐11]
